Reference: ChEMBL document CHEMBL1130661, “Design and synthesis of SH3 domain binding ligands: modifications of the consensus sequence XPpXP” (Bioorg Med Chem Lett, 1998)

Assay: Compound was tested for the […] domain binding using BIA core binding assay

Compound	IC50 [µM]	Kd [µM]
CC(=O)N1CCC[C@@H]1C(=O)N[C@@H](CCCN=C(N)N)C(=O)N1CCC[C@@H]1C(=O)N[C@@H](CC(C)C)C(=O)N1CCC[C@]12CC[C@H]1SC[C@@H](C(=O)N[C@@H](C)C(=O)N3CCC[C@H]3C(=O)NCC(=O)O)N1C2=O	46	–
CC(=O)N1CCC[C@@H]1C(=O)N[C@@H](CCCN=C(N)N)C(=O)N1CCC[C@@H]1C(=O)N[C@@H](CC(C)C)C(=O)N1CCC[C@@]12CC[C@@H]1SC[C@H](C(=O)N[C@@H](C)C(=O)N3CCC[C@H]3C(=O)NCC(=O)O)N1C2=O	75	–
CC(C)C[C@H](NC(=O)[C@H](CO)NC(=O)[C@@H](N)C(C)C)C(=O)N[C@@H](C)C(=O)N[C@@H](CCCN=C(N)N)C(=O)N[C@@H](CCCN=C(N)N)C(=O)N1CCC[C@H]1C(=O)N[C@@H](CC(C)C)C(=O)N1CCC[C@H]1C(=O)N1CCC[C@H]1C(=O)N[C@@H](CC(C)C)C(=O)N1CCC[C@H]1C(=O)O	–	1.6
